Measurements: patent US20080014247A1, “METAL-CONTAINING FORMULATIONS AND METHODS OF USE” (Nucryst Pharmaceuticals, priority 2006, published 2008)

Key:
[1] = tested on: Pseudomonas aeruginosa; test: MIC assay (microdilution); assay type: cell-based
[2] = tested on: Streptococcus pneumoniae; test: MIC assay (microdilution); assay type: cell-based; conditions: lactate solutions
[3] = tested on: Enterobacter cloacae; test: MIC assay (microdilution); assay type: cell-based
[4] = tested on: Proteus mirabilis; test: MIC assay (microdilution); assay type: cell-based; conditions: isolate NP405
[5] = tested on: E. coli; test: Minimal bactericidal concentration (MBC) assay; assay type: cell-based, Escherichia coli
Description: (§1) Minimal bactericidal concentration (MBC) assay—Overnight-grown MIC plates, prepared as described in Example 16, were evaluated to determine the MIC. Culture was then sampled from wells at and near the MIC using sterile inoculating loops, and transferred to fresh MHA plates to determine if viable bacteria remained. […] The MBC was determined as the well in the MIC plate which contained the lowest concentration of silver yielding no bacterial growth on the MHA plate.

[6] = tested on: Shigella flexneri; test: MIC assay (microdilution); assay type: cell-based; conditions: ATCC 12022
[7] = tested on: B. multivorans; test: Minimal bactericidal concentration (MBC) assay; assay type: cell-based, Burkholderia multivorans
Description: as §1

[8] = tested on: Streptococcus pyogenes; test: MIC assay (microdilution); assay type: cell-based
[9] = tested on: B dolosa; test: Minimal bactericidal concentration (MBC) assay; assay type: cell-based, Burkholderia dolosa
Description: as §1

[10] = tested on: C. freundii; test: Minimal bactericidal concentration (MBC) assay; assay type: cell-based, Citrobacter freundii; conditions: isolate NP410
Description: as §1

[11] = tested on: Ps. aeruginosa; test: Minimal bactericidal concentration (MBC) assay; assay type: cell-based, Pseudomonas aeruginosa
Description: as §1

[12] = tested on: Staph. aureus; test: Minimal bactericidal concentration (MBC) assay; assay type: cell-based, Staphylococcus aureus
Description: as §1

[13] = tested on: Mycobacterium tuberculosis H37Ra (ATCC 25177); test: microbe, parasite or virus in culture; assay type: cell-based
[14] = tested on: Prot. mirabilis; test: Minimal bactericidal concentration (MBC) assay; assay type: cell-based, Proteus mirabilis; conditions: isolate NP405
Description: as §1

[15] = tested on: Burkholderia multivorans; test: MIC assay (microdilution); assay type: cell-based
[16] = tested on: Staphylococcus aureus; test: MIC assay (microdilution); assay type: cell-based
[17] = tested on: Ser. marcescens; test: Minimal bactericidal concentration (MBC) assay; assay type: cell-based, Serratia marcescens
Description: as §1

[18] = tested on: Klebsiella pneumoniae; test: MIC assay (microdilution); assay type: cell-based
[19] = tested on: K. pneumoniae; test: Minimal bactericidal concentration (MBC) assay; assay type: cell-based, Klebsiella pneumoniae
Description: as §1

[20] = tested on: Staphylococcus epidermidis; test: MIC assay (microdilution); assay type: cell-based
[21] = tested on: Serratia marcescens; test: MIC assay (microdilution); assay type: cell-based
[22] = tested on: Strep. pyogenes; test: Minimal bactericidal concentration (MBC) assay; assay type: cell-based, Streptococcus pyogenes
Description: as §1

[23] = tested on: Staph epidermidis; test: Minimal bactericidal concentration (MBC) assay; assay type: cell-based, Staphylococcus epidermidis
Description: as §1

[24] = tested on: Burkholderia dolosa; test: MIC assay (microdilution); assay type: cell-based
[25] = tested on: Citrobacter freundii; test: MIC assay (microdilution); assay type: cell-based; conditions: isolate NP410
[26] = tested on: Escherichia coli; test: MIC assay (microdilution); assay type: cell-based

O=[N+]([O-])[O-].[Ag+] [AgNO3, silver nitrate]
13 µg/mL: MIC ([3]; aerobic +) | MIC ([21]; aerobic − (anaerobic))
0.4 parts silver per million: MBC ([5]; ATCC 8739) | MBC ([5]; ATCC 43745) | MIC ([26]; ATCC 8739)
10 parts silver per million: MBC ([22]; isolate NP303)
3 µg/mL: MIC ([1]; P. aerug (ATCC), lactate solutions) | MIC ([1]; P. aerug. (clin.), lactate solutions) | MIC ([8]; S. pyog (clin. 303), lactate solutions) | MIC ([18]; aerobic +) | MIC ([18]; aerobic − (anaerobic)) | MIC ([20]; S. epiderm (ATCC), lactate solutions) | MIC ([26]; E. coli (ATCC), lactate solutions)
6 µg/mL: MIC ([21]; aerobic +)
6 parts silver per million: MIC [4] | MIC ([8]; isolate NP304) | MIC ([8]; isolate NP306) | MBC ([12]; ATCC 6538) | MBC ([12]; ATCC 700699) | MBC ([12]; isolate NP102) | MBC ([12]; isolate NP103) | MIC ([16]; ATCC 6538) | MIC ([16]; isolate NP101) | MIC ([16]; isolate NP102) | MIC ([16]; isolate NP103) | MBC ([17]; isolate NP402) | MBC ([17]; isolate NP402, second entry) | MBC ([17]; isolate NP408) | MIC ([18]; isolate NP403) | MIC ([18]; isolate NP403, second entry) | MBC ([19]; isolate NP403) | MIC ([21]; isolate NP402) | MIC ([21]; isolate NP402, second entry) | MIC ([21]; isolate NP408)
1 ppm: MIC ([6]; formulation type Water/PVA)
3 ppm: MIC ([1]; isolate NP212, formulation type Water/Lecithin) | MIC ([1]; isolate NP212, formulation type Water/PVA)
11 parts silver per million: MBC ([12]; isolate NP101) | MBC ([17]; isolate NP408, second entry) | MIC ([21]; isolate NP408, second entry)
1 parts silver per million: MIC ([1]; ATCC 9027) | MIC ([1]; isolate NP201) | MIC ([1]; isolate NP204) | MIC ([1]; isolate NP206) | MBC ([5]; isolate NP412) | MBC ([11]; isolate NP206) | MIC ([18]; isolate NP406) | MBC ([19]; isolate NP406) | MIC ([26]; ATCC 43745) | MIC ([26]; isolate NP412)
2 ppm: MIC ([1]; isolate NP212, formulation type Lactate) | MIC ([6]; formulation type Lactate) | MIC ([6]; formulation type Water/Lecithin)
2.5 μg/ml silver: MIC [13]
21 parts silver per million: MBC ([22]; isolate NP304) | MBC ([22]; isolate NP306)
25 µg/mL: MIC ([3]; aerobic − (anaerobic))
5 µg/mL: MIC ([8]; S. pyog (clin. 304), lactate solutions) | MIC ([16]; S. aureus (clin.), lactate solutions)
13 parts silver per million: MBC [14]
2 parts silver per million: MIC ([1]; ATCC 27317) | MBC ([9]; isolate A4) | MIC ([15]; isolate B4) | MIC ([24]; isolate A3) | MIC ([24]; isolate A4)
21 µg/mL: MIC ([2]; S. pneumo (clin 315))
3 parts silver per million: MBC ([7]; isolate B1) | MBC ([7]; isolate B2) | MBC ([7]; isolate B4) | MIC ([8]; isolate NP303) | MBC ([9]; isolate A3) | MBC [10] | MBC ([11]; ATCC 27317) | MBC ([11]; isolate NP201) | MBC ([11]; isolate NP204) | MIC ([15]; isolate B1) | MIC ([15]; isolate B2) | MIC ([16]; ATCC 700699) | MIC ([18]; isolate NP401) | MBC ([19]; isolate NP401) | MBC ([19]; isolate NP403, second entry) | MIC ([20]; ATCC 12228) | MIC ([20]; isolate NP136) | MBC ([23]; ATCC 12228) | MBC ([23]; isolate NP136) | MIC [25]
11 µg/mL: MIC ([2]; S. pneumo (clin 314)) | MIC ([16]; S. aureus (ATCC), lactate solutions)
